Several values for one entry are separate records, joined by “and”; a condition that tells them apart may be missing. Equal values may be shown once.
System: scalp fragments
Experiment: Example 4: cell proliferation (anti-Ki67 immunohistochemistry) in root and outer epithelial sheath of scalp fragments kept in survival
Format: cell-based, human
Conditions: N = 6, 48 hours
Description: The aim of the present study is to identify the effectiveness of a CNB according to the invention and according to Table 2, on the stimulation of the root. The cell proliferation, using the anti-Ki67 antibody, was evaluated in the matrix zone of the root (growth zone of the stem), but also in the outer epithelial sheath of the follicle.
Scalp fragments from 6 different donors (cervico-facial lift of a non-alopecia subject) were deposited in inserts, themselves positioned on culture wells.
Containing no preservative, antibiotics were added to all these tested media (fungizone, gentamycin). They were added daily to the bottom of the wells, a passage taking place by slow diffusion between the two compartments via a porous membrane (12 μm).
The scalp fragments were kept in survival in a stove at 37° C. and in an air/5% CO2 atmosphere for 48 hours.
The scalp fragments were fixed in Bouin's liquid and set in paraffin.
The immunohistochemical evaluation of proliferation was carried out in the root and in the outer epithelial sheath surrounding the hair. This outer sheath is histologically considered as the prolongation of the surface epidermis.
Epithelial proliferation was analyzed by immunohistochemistry using an anti-Ki67 antibody (for labelling cells M, S, G1 and G2 of the cell cycle). Immunodetection was carried out using an indirect immunoperoxidase technique in 3 layers, amplified by (DAKO kit) and developed in AEC.
The number of labelled cells of the outer epithelial sheath was counted between the origin of the sebaceous glands and the beginning of the root zone. Furthermore, the labelled matrix cells in the roots were also counted. The percentage of cells undergoing proliferation was thereby calculated compared to the unlabelled cells.
Statistical analysis was carried out by the Student's test of the reduced deviation or paired samples test. The significant threshold was set at 5%.

In the case of `Nc1cc(N2CCCCC2)nc(N)[n+]1[O-]` [Minoxidil], the “% of labelled cells (anti-Ki67) in the outer epithelial sheath of the follicles” value (Minoxidil 0.01% in PBS) is reported as 10.2% and 10.2 ± 5%, the “% of labelled matrix cells (anti-Ki67) in the root of the hair follicle” value (Minoxidil 0.01% in PBS) is reported as 4.2% and 4.2 ± 2.45% and the “% of labelled cells (anti-Ki67) in the outer epithelial sheath of the follicles” value (Minoxidil 2% in PBS) is reported as 17.6% and 17.6 ± 7 %. The “% of labelled matrix cells (anti-Ki67) in the root of the hair follicle” value (Minoxidil 2% in PBS) was 11.60% and 11.6 ± 8.7%.
